According to US9403855B2 (priority 2010, dated 2016):

Key:
[1] = molecular target: T1, H274Y neuraminidase mutant from A/WSN/1933 (H1N1) (Influenza A virus, UniProt P03470, H259Y); assay: cell-based; design: species or system Influenza virus A/WSN/1933 (H1N1) H274Y mutant
[2] = molecular target: T1, H274Y neuraminidase mutant from A/WSN/1933 (H1N1); assay: biochemical; design: species or system Influenza virus A/WSN/1933 (H1N1) H274Y mutant

| Structure (SMILES) | EC50 [1] [nM] | IC50 [2] [nM] |
| --- | --- | --- |
| CC(=O)N[C@H]1[C@H]([C@H](O)[C@H](O)CO)OC(P(=O)(O)O)=C[C@@H]1N [1a, (5-Acetamido-4-amino-6-(1,2,3-hydroxy)propyl-4,5,6-trihydropyran-2-yl) phosphonic acid] | 27 | 0.5 |
| CC(=O)N[C@H]1[C@H]([C@H](O)[C@H](O)CO)OC(P(=O)(O)O)=C[C@@H]1NC(=N)N [1b, (5-Acetamido-4-guanidino-6-(1,2,3-hydroxy)propyl-4,5,6-trihydropyran-2-yl) phosphonic acid] | 26 | 0.25 |
